Reference: US4217366A, “Pharmaceutically active 2-(4-aminobutoxy)stilbenes” (Mitsubishi Chemical Industries, Ltd., priority 1978, dated 1980)

Assays:
[1] = system: maximal electroshock seizure (MES); test: Anti-MES action: protection against tonic extensor (TE) induced by electroshock via a pair of ear electrodes; assay type: in vivo, ddy strain male mice
Experimental: Animals used were ddy strain male mice (20-22 g) and Wistar strain male rats (150-170 g). Anticonvulsant actions were determined by the ability of the compounds to prevent pentylenetetrazol (PTZ) convulsion and maximal electroshock seizure (MES), using 8 mice per group. Anti-MES action was also judged by the protection against TE induced by electroshock via a pair of ear electrodes ([…] al., J. Pharmacol. exp. Therap., 127 55 (1959)). The results were expressed as 50% effective dose (ED50, mg/kg po) or an inhibition percentage at certain doses used.

[2] = system: pentylenetetrazol (PTZ) convulsion; test: Anti-PTZ action: protection against tonic extensor (TE) induced by intraperitoneal pentylenetetrazol (100 mg/kg i.p.); assay type: in vivo, ddy strain male mice; settings: for ED50 / inhibition at 50 mg/kg: Mus musculus; for inhibition at 50 mg/kg: at 50 mg/kg po (given as <50*)
Experimental: (§1) Animals used were ddy strain male mice (20-22 g) and Wistar strain male rats (150-170 g). Anticonvulsant actions were determined by the ability of the compounds to prevent pentylenetetrazol (PTZ) convulsion and maximal electroshock seizure (MES), using 8 mice per group. Anti-PTZ action was judged by the protection against tonic extensor (TE) induced by intraperitoneal injection of PTZ (100 mg/kg i.p.) (K. Nakamura et al., Arch. int. Pharmacodyn., 156 261 (1965)). The results were expressed as 50% effective dose (ED50, mg/kg po) or an inhibition percentage at certain doses used.

[3] = LD50 in mice, method of Litchfield-Wilcoxon; assay type: in vivo; settings: mouse, in vivo, po
Experimental: (§2) Animals used were ddy strain male mice (20-22 g) and Wistar strain male rats (150-170 g).
(§3) LD50 was calculated by the method of Litchfield-Wilcoxon (J. T. Litchfield and F. Wilcoxon, J. Pharmacol. exp. Therap., 96 99 (1949)).

[4] = LD50 in rats, method of Litchfield-Wilcoxon
Experimental: as §2, §3

[5] = system: maximal electroshock seizure (MES) and pentylenetetrazol (PTZ) convulsion; test: antiepileptic efficacy (anti-MES and anti-PTZ) compared with trimethadione and methotoin; assay type: in vivo, ddy strain male mice; settings: from Table 2
Experimental: as §1, with “(1965)). Anti-MES action was also judged by the protection against TE induced by electroshock via a pair of ear electrodes ([…] al., J. Pharmacol. exp. Therap., 127 55 (1959)).” for “(1965)).”

[6] = in vivo
Experimental: as §3

Mice = test: LD50 in mice, method of Litchfield-Wilcoxon; assay type: in vivo; settings: mice, po
Experimental: as §2, §3

Rat = settings: po, from "Iyakuhin Kenkyuho" (page 258), Asakura Shoten (1968); cited from earlier work
grand-mal seizure = settings: well known antiepileptic agent; cited from earlier work
peti-mal seizure = settings: well known antiepileptic agent; cited from earlier work
[7] = Mus musculus, 50% effective dose, po, 8 mice per group
[8] = 50% effective dose, po, PTZ 100 mg/kg i.p., 8 mice per group

SMILES	ED50 [1, 7] [mg/kg]	ED50 [2, 8] [mg/kg]	antiepileptic efficacy [5]	LD50 ([3]; mice) [mg/kg]	inhibition at 50 mg/kg [2] [%]	also measured
CN1CCN(CCCCOc2ccccc2C=Cc2ccccc2)CC1 [compound 3]	35.5	21.1	much greater than that of trimethadione and methotoin	–	–	LD50 [3]: 1050 mg/kg; LD50 ([4]; rat, in vivo, po): 2300 mg/kg; level of toxicity [6]: low level of toxicity
OC1CCCN(CCCCOc2ccccc2C=Cc2ccccc2)C1 (stereo not drawn) [compound 6]	20	14	much greater than that of trimethadione and methotoin	415	–	–
C(=Cc1ccccc1OCCCCN1CCCC1)c1ccccc1 [compound 7]	65	< 50	–	600	87.5	–
CCC1(c2ccccc2)NC(=O)N(C)C1=O (stereo not drawn) [Methotoin, reference compound]	–	–	–	–	–	ED50 Anti-MES ([1]; 50% effective dose, po, 8 mice per group): 91.3 mg/kg PO; ED50 Anti-PTZ [2, 8]: 51.9 mg/kg PO; LD50 Mice (Mice): 475 mg/kg PO; LD50 Rat (literature) (Rat): 2,500 mg/kg PO; effectiveness against grand-mal seizure (grand-mal seizure): effective against grand-mal seizure
CN(C)CCCCOc1ccccc1C=Cc1ccccc1.Cl [Example 1, 2-(4-dimethylaminobutoxy)stilbene hydrochloride]	38	17.8	much greater than that of trimethadione and methotoin	1300	–	LD50 ([4]; in vivo; rat, po): 2000 mg/kg; level of toxicity [6]: low level of toxicity
C(=Cc1ccccc1OCCCCN1CCCCC1)c1ccccc1 [compound 5]	60	< 50	–	621	100	–
CN1C(=O)OC(C)(C)C1=O [Trimethadione, reference compound]	1180	230	–	2200	–	effectiveness against peti-mal seizure (peti-mal seizure): effective against peti-mal seizure
CCCN1CCN(CCCCOc2ccccc2C=Cc2ccccc2)CC1 [compound 8]	–	< 50	–	–	85	inhibition at 50 mg/kg ([1]; Mus musculus, at 50 mg/kg po): 40%
OCCN1CCN(CCCCOc2ccccc2C=Cc2ccccc2)CC1 [compound 4]	76.1	16.3	–	1050	–	–
CNCCCCOc1ccccc1C=Cc1ccccc1 [compound 2]	60	22.5	–	839	–	–
